Results from patent US7511041B2, “Fused azole-pyrimidine derivatives” (Bayer Pharmaceuticals Corporation, priority 2002, dated 2009).
Read-outs that look alike come from different tables or passages of the source.

Key:
[1] = molecular target: T1, Recombinant human PI3Kγ (full length human PI3K p110γ) (Homo sapiens, UniProt P48736); assay: Kinase assay of PI3Kγ (solid-phase lipid kinase assay); type: biochemical
T1 construct: full length human PI3K p110γ fused with a His6-tag at the C-terminus; His6 (C); purchased ALEXIS BIOCHEMICALS #201-055-C010; host or cells: S. frugiperda 9 insect cells
T1 sequence (P48736 whole entry, the tested form may be a part): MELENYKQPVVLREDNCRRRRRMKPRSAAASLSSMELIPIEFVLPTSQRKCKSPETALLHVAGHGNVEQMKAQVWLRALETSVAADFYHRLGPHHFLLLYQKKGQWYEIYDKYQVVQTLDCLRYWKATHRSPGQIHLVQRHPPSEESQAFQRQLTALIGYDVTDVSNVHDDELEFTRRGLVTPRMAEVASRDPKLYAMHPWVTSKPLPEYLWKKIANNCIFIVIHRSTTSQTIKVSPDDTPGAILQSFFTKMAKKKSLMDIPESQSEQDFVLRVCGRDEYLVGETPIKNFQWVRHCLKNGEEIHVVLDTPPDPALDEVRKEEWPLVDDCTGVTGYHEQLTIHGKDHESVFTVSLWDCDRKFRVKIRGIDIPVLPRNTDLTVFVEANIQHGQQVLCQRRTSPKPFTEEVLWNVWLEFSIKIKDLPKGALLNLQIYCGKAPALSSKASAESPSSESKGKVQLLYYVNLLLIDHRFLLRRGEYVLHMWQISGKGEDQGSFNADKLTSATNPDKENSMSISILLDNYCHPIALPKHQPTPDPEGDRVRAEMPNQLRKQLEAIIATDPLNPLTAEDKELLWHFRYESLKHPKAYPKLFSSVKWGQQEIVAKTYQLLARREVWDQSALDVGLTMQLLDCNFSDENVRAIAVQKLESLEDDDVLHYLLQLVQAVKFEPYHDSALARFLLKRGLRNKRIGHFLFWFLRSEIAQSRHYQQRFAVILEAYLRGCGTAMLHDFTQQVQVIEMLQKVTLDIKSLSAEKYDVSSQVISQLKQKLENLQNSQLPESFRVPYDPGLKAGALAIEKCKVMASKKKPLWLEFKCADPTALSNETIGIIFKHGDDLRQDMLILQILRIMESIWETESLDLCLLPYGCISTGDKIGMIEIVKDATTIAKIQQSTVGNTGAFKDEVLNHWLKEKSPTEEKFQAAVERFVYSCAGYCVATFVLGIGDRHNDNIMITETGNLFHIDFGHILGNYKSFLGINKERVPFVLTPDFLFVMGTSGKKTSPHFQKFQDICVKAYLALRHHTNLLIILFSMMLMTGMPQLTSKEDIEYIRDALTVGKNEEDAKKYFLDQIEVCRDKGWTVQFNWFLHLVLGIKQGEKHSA
Text: [Determination of IC50 Values of Compounds in Kinase Assay of PI3Kγ]
Chemicals and Assay Materials
LABORATORIES (Toronto, Canada). Recombinant human PI3Kγ (full length human PI3K p110γ fused with a His6-tag at the C-terminus expressed in S. frugiperda 9 insect cells) was obtained from ALEXIS BIOCHEMICALS (#201-055-C010; San Diego, Calif.). […] BIOTECH (Buckinghamshire, UK) and ROCHE DIAGNOSTICS (Mannheim, Germany), respectively. Scintillation cocktails and MicroScint PS™ were purchased from PACKARD (Meriden, Conn.). Maxisorp™ plates were purchased from NALGE NUNC INTERNATIONAL K.K. (Tokyo, Japan). All other chemicals not further specified were from WAKO PURE CHEMICALS (Osaka, Japan).
Solid-Phase Lipid Kinase Assay
The plates were subsequently air-dried by incubation for at least 2 hours in a fume hood. The reaction was set up by mixing 25 μl/well of assay buffer 2× (100 mM MOPSO/NaOH, 0.2 M NaCl, pH 7.0, 8 mM MgCl2, 2 mg/ml BSA (fatty acid-free)) and 50 ng/well PI3Kγ in the lipid pre-coated plate and 10× test compounds were added in 2% DMSO. The reaction was started by adding 20 μl/well of ATP mix (final 10 μM ATP; 0.05 μCi/well [γ^33P]ATP). After incubation at RT for 2 hours, the reaction was terminated by adding 50 μl/well stop solution (50 mM EDTA, pH 8.0). The plate was then washed twice with Tris-buffered saline (TBS, pH 7.4). MicroScint PS™ (PACKARD) scintillation mix was added at 100 μl/well, and radioactivity was counted by using a TopCount™ (PACKARD) scintillation counter.
The inhibition percent at each concentration of compound was calculated, and IC50 values were determined from the inhibition of curve.

[2] = Table 1, isozyme not given, read-out: in vitro
[3] = in vitro PI3K-γ inhibitory activity, class symbols A-D, read-out: in vitro PI3K-gamma
[4] = in vitro PI3K-γ inhibitory activity, class symbols, read-out: in vitro PI3K-gamma

Row | Compound | melting point | IC50 [1, 2] [nM] | IC50 [1, 3] [nM] | IC50 [1, 4] [nM]
1 | CNc1ccc(/C(O)=C/C2=Nc3ccccc3C3=NCCN23)cn1 [Example 1-139] | 232 to 237 °C | < 100 |  | 
2 | O/C(=C\C1=Nc2ccccc2C2=NCCN12)c1cccs1 [Example 1-146] | 193 °C | < 100 |  | 
3 | COc1ccc(C(=O)NC2=Nc3ccccc3C3=NCCN23)c(OC)n1.Cl [Example 2-287] | 210 °C (dec.) |  | 500 to 2000 | 
4 | CC(=O)Nc1ccc(/C(O)=C/C2=Nc3cc(N4CCN(C)CC4)ccc3C3=NCCN23)cn1 [Example 1-105] | 292 °C (dec.) | 100 to 500 |  | 
5 | CSc1ncccc1C(=O)NC1=Nc2ccccc2C2=NCCN12.Cl [Example 2-289] | 298 to 299 °C |  | 500 to 2000 | 
6 | O=C(NC1=Nc2ccccc2C2=NCCN12)c1ccc([N+](=O)[O-])cc1 [Example 2-254] | 279 to 281 °C |  | > 2000 | 
7 | CC(=O)Nc1ccc(C(=O)NC2=Nc3cc(N4CCOCC4)ccc3C3=NCCN23)cc1.Cl [Example 2-9] | 249 °C |  |  | 100 to 500
8 | Cl.NC(=O)C1CN2C(NC(=O)c3cccnc3)=Nc3ccccc3C2=N1 (centres unmarked) [Example 2-365] | 274 °C (dec.) |  | > 2000 | 
9 | O=C(NC1=Nc2ccccc2C2=NCCN12)c1ccc([N+](=O)[O-])s1 [Example 2-303] | 286 to 287 °C |  | > 2000 | 
10 | COc1c(OCC(=O)NCc2ccc(F)cc2)ccc2c1N=C(/C=C(\O)c1cccnc1)N1CCN=C21.Cl [Example 1-31] | 230 to 231 °C | 100 to 500 |  | 
11 | Cc1ccc2c(c1)C1=NCCN1C(NC(=O)c1cccnc1)=N2 [Example 2-90] | 210 °C |  |  | < 100
12 | COc1cc2c(cc1OC)C1=NCCN1C(NC(=O)c1cncc(O)c1)=N2 [Example 2-54] | 287 °C (dec.) |  |  | < 100
13 | O=C(NC1=Nc2ccccc2C2=NCCN12)c1ccc2ncsc2c1 [Example 2-312] | 303 to 305 °C |  | > 2000 | 
14 | N#Cc1ccc(/C(O)=C/C2=Nc3ccccc3C3=NCCN23)s1 [Example 1-177] | 256 °C | 500 to 2000 |  | 
15 | CC(=O)Oc1cccc2c1N=C(/C=C(\O)c1cccnc1)N1CCN=C21 [Example 1-93] | 225 to 226 °C | 100 to 500 |  | 
16 | NC(=O)COc1ccc2c(c1)N=C(NC(=O)c1cccnc1)N1CCN=C21 [Example 2-206] | 296 °C |  | 100 to 500 | 
17 | O=[N+]([O-])c1ccc(/C(O)=C/C2=Nc3ccccc3C3=NCCN23)cc1 [Example 1-168] | 240 to 248 °C | > 2000 |  | 
18 | CCC(C)[C@H]1CN2C(NC(=O)c3cccnc3)=Nc3ccccc3C2=N1.Cl (some centres unmarked) [Example 2-364] | 230 to 240 °C |  | > 2000 | 
19 | Cc1cccc2c1N=C(NC(=O)c1ccc3[nH]cnc3c1)N1CCN=C21 [Example 2-109] | > 290 °C |  |  | < 100
20 | COc1cc2c(cc1OC)C1=NCCN1C(/C=C(\O)c1ccc(C#N)cc1)=N2 [Example 1-187] | 307 to 308 °C | > 2000 |  | 
21 | O=C(NC1=Nc2ccc(O)cc2C2=NCCN12)c1ccc2[nH]cnc2c1 [Example 2-212] | 296 °C (dec.) |  | 100 to 500 | 
22 | O/C(=C\C1=Nc2ccccc2C2=NCCN12)c1ccno1 [Example 1-152] | 148 °C | 100 to 500 |  | 
23 | Cc1ccc(C(=O)NC2=Nc3ccccc3C3=NCCN23)cn1 [Example 2-147] | 195 to 196 °C |  |  | < 100
24 | Cl.O=C(NC1=Nc2ccccc2C2=NCCN12)c1ccc2ncsc2c1 [Example 2-313] | 314 °C (dec.) |  | 500 to 2000 | 
25 | COc1cccc2c1N=C(NC(=O)c1ccc3[nH]cnc3c1)N1CCN=C21 [Example 2-124] | 287 °C |  |  | < 100
26 | O/C(=C\C1=Nc2c(OCCN3CCOCC3)cccc2C2=NCCN12)c1cccnc1 [Example 1-84] | 195 to 196 °C | 100 to 500 |  | 
27 | O=C(NC1=Nc2ccccc2C2=NCCN12)C1CCNCC1 [Example 2-339] | 179 to 180 °C |  | > 2000 | 
28 | O=C(NC1=Nc2ccccc2C2=NCCN12)c1cccnc1Cl [Example 2-134] | 198 to 199 °C |  |  | < 100

Row | Compound | melting point | IC50 [1, 2] [nM] | IC50 [1, 3] [nM] | IC50 [1, 4] [nM]
29 | CS(=O)(=O)Nc1cncc(C(=O)NC2=Nc3ccccc3C3=NCCN23)c1 [Example 2-143] | 265 to 269 °C |  |  | < 100
30 | O=C(NC1=Nc2ccccc2C2=NCCN12)c1ccc2[nH]nnc2c1.O=C(O)C(F)(F)F [Example 2-310] | 252 °C (dec.) |  | 100 to 500 | 
31 | CN1CCN(c2ccc(C(=O)NC3=Nc4ccccc4C4=NCCN34)cc2)CC1 [Example 2-261] | 218 to 222 °C |  | > 2000 | 
32 | O=C(NC1=Nc2ccccc2C2=NCCN12)c1ccco1.O=C(O)C(F)(F)F [Example 2-300] | 230 to 232 °C |  | 100 to 500 | 
33 | Cc1ccc(C(=O)NC2=Nc3ccccc3C3=NCCN23)c(Cl)n1.Cl [Example 2-156] | 287 °C (dec.) |  |  | 100 to 500
34 | CCOC(=O)c1cc(C(=O)NC2=Nc3ccccc3C3=NCCN23)cc(C(=O)OCC)c1 [Example 2-274] | 289 °C (dec.) |  | > 2000 | 
35 | Cc1ccc(C(=O)NC2=Nc3cc(N4CCOCC4)ccc3C3=NCCN23)cn1 [Example 2-13] | 209 °C |  |  | < 100
36 | COc1ccc2c(c1OCCN1CCOCC1)N=C(/C=C(\O)c1ccc(NC(C)=O)nc1)N1CCN=C21.Cl [Example 1-38] | 260 °C | < 100 |  | 
37 | COc1ccc2c(c1OCCN1CCOCC1)N=C(/C=C(\O)c1cccnc1)N1CCN=C21 [Example 1-36] | 197 °C | < 100 |  | 
38 | Cl.O=C(NC1=Nc2ccc(-c3ccco3)cc2C2=NCCN12)c1cccnc1 [Example 2-97] | 298 to 299 °C |  |  | 100 to 500
39 | O=C(NC1=Nc2ccccc2C2=NCCN12)c1cccnc1.O=C(O)C(F)(F)F [Example 2-130] | 237 to 239 °C |  |  | < 100
40 | Cc1ccc2c(c1)C1=NCCN1C(/C=C(\O)c1cccnc1)=N2 [Example 1-131] | 212 °C | 100 to 500 |  | 
41 | CC(=O)Nc1ccc(/C(O)=C/C2=Nc3c(CN4CCOCC4)cccc3C3=NCCN23)cn1 [Example 1-208] | 253 °C (dec.) | 100 to 500 |  | 
42 | Cc1nc2ncccc2cc1C(=O)NC1=Nc2ccccc2C2=NCCN12 [Example 2-174] | 296 °C (dec.) |  |  | 100 to 500
43 | Cl.NCC(=O)Oc1ccc2c(c1)C1=NCCN1C(/C=C(\O)c1cccnc1)=N2 [Example 1-128] | > 300 °C | < 100 |  | 
44 | COc1cccc2c1N=C(NC(=O)c1cc3cccnc3nc1C(F)(F)F)N1CCN=C21 [Example 2-128] | 214 °C (dec.) |  |  | < 100
45 | Cc1ncccc1C(=O)NC1=Nc2cc(N3CCOCC3)ccc2C2=NCCN12 [Example 2-12] | 199 °C (dec.) |  |  | 100 to 500
46 | O=C(NC1=Nc2ccc(Br)cc2C2=NCCN12)c1cccs1 [Example 2-351] | 232 °C |  | > 2000 | 
47 | Cl.O=C(NC1=Nc2cc(Cl)ccc2C2=NCCN12)c1cccnc1 [Example 2-38] | 308 °C |  |  | 100 to 500
48 | COc1cc(C(=O)NC2=Nc3ccccc3C3=NCCN23)cc(OC)c1C [Example 2-241] | 248 °C (dec.) |  | > 2000 | 
49 | O/C(=C\C1=Nc2c(Br)cccc2C2=NCCN12)c1cccnc1 [Example 1-73] | 120 °C (dec.) | 100 to 500 |  | 
50 | Cl.O=C(NC1=Nc2ccc(Br)cc2C2=NCCN12)c1ccc2[nH]cnc2c1 [Example 2-89] | 288 °C |  |  | 100 to 500
51 | CNc1ccc(/C(O)=C/C2=Nc3cc(OC)c(OC)cc3C3=NCCN23)cn1 [Example 1-52] | 321 to 325 °C | 100 to 500 |  | 
52 | COc1cccc2c1N=C(NC(=O)c1cccnc1C)N1CCN=C21.Cl [Example 2-117] | 251 °C (dec.) |  |  | < 100
53 | Nc1ccccc1C(=O)NC1=Nc2ccccc2C2=NCCN12.O=C(O)C(F)(F)F [Example 2-257] | 175 °C (dec.) |  | > 2000 | 
54 | CN(C)c1ccc(C(=O)NC2=Nc3ccccc3C3=NCCN23)cn1 [Example 2-282] | 249 °C (dec.) |  | > 2000 | 
55 | CN(C)c1ccc2c(c1)C1=NCCN1C(NC(=O)c1cccnc1)=N2 [Example 2-345] | 269 °C |  | 500 to 2000 | 
